Tests used:
Aβ42 [1] = assay: In vivo Aβ42 lowering, rat; conditions: oral dose 30 mpk at 4 hr time point
Source text: (§1) To determine whether acute administration of an Aβ42 lowering agent would reduce Aβ42 levels in vivo, non-transgenic rodents, e.g. mice or rats can be used. Alternatively, two to three month old Tg2576 mice expressing APP695 containing the “Swedish” variant can be used or a transgenic mouse model developed by Dr. Fred Van Leuven (K.U.Leuven, Belgium) and co-workers, with neuron-specific expression of a clinical mutant of the human amyloid precursor protein [V717I] (Moechars et al., 1999 J. Biol. Chem. 274, 6483). […] Animals of this age have high levels of Aβ in the brain but no detectable Aβ deposition. Mice treated with the Aβ42 lowering agent will be examined and compared to those untreated or treated with vehicle and brain levels of soluble Aβ42 and total Aβ would be quantitated by standard techniques, for example, using ELISA. Treatment periods may vary from hours to days and will be adjusted based on the results of the Aβ42 lowering once a time course of onset of effect can be established.
(§2) A typical protocol for measuring Aβ42 lowering in vivo is shown but it is only one of many variations that could be used to optimize the levels of detectable Aβ. For example, aliquots of compounds can be dissolved in DMSO (volume equal to 1/10th of the final formulation volume), vortexed and further diluted (1:10) with a 10% (w/v) hydroxypropyl β cyclodextrin (HBC, Aldrich, Ref N° 33,260-7) solution in PBS, where after they are sonicated for 20 seconds.
(§3) Aβ42 lowering agents may be administered as a single oral dose given three to four hours before sacrifice and analysis or alternatively could be given over a course of days and the animals sacrificed three to four hours after the final dose is given.
(§4) Blood is collected at sacrifice. The blood collection is performed via a heart puncture during anesthesia with a mixture of Ketalar (Ketamin), Rompun (Xylazin 2%) and Atropin (2:1:1) and collected in EDTA treated collection tubes. Blood is centrifuged at 4000 g for 5 minutes at 4° C. and the plasma recovered for analysis.
(§5) The mice are anaesthetized with a mixture of Ketalar (Ketamin), Rompun (Xylazin 2%) and Atropin (2:1:1) and flushed trans-cardially with physiological serum at 4° C.
(§6) The brain is removed from the cranium and hindbrain and forebrain are separated with a cut in the coronal/frontal plane. The cerebellum is removed. The forebrain is divided evenly into left and right hemisphere by using a midline sagital cut.
(§7) One hemisphere is immediately immersed in liquid nitrogen and stored at −70° C. until homogenization for biochemical assays.
(§8) Brains are homogenized using a Potter, a glass tube (detergent free, 2 cm^3) and a mechanical homogenizer (650 rpm). A volume of 6.5×½ brain weight of freshly prepared 20 mM Tris/HCl buffer (pH 8.5) with Proteinase Inhibitors (1 tablet per 50 ml Tris/HCl buffer, Complete™, Roche, Mannheim, Germany) is used as homogenization buffer.
(§9) Samples are transferred from −70° C. into a sample holder with liquid nitrogen and each individual sample is pre-warmed by incubation on the bench for a few seconds prior to homogenization. The homogenates are collected in Beckman centrifuge tubes TLX and collected on ice prior to centrifugation. Between two samples, the Potter and the glass tube are rinsed carefully with distilled water without detergents and dried with absorption paper.
(§10) Samples are centrifuged in a pre-cooled ultracentrifuge (Beckman, Mannheim, Germany) for 1 hour and 20 minutes at 48000 rpm (135.000×g) at 4° C. The supernatant (soluble fraction containing secreted APP and amyloid peptides) is separated from the pellet (membrane fraction containing membrane-bound APP-fragments and plaque-associated amyloid peptides in case of aged mice).
(§11) Small reversed phase columns (C18-Sep-Pack Vac 3 cc cartridges, Waters, Mass., MA) are mounted on a vacuum system and washed with 80% acetonitrile in 0.1% Trifluoroacetic acid (A-TFA) followed with 0.1% TFA twice. […]

Aβ42 [2] = assay: In vivo Aβ42 lowering, mouse; conditions: oral dose 30 mpk at 4 hr time point, read-out: Mouse Efficacy % Lowering Aβ 42
Source text: as §1, §2, §3, §4, §5, §6, §7, §8, §9, §10, §11

Row | SMILES | Rat Efficacy % Lowering Aβ 42 (Aβ42 [1]) [%] | inhibition in vivo at 30 mg/kg (Aβ42 [2]) [%]
1 | CC(C)C[C@H](C(=O)O)c1cc(-c2ccc(C(F)(F)F)cc2)cc(-c2ccc(C(F)(F)F)cc2)c1 [Compound 40, (S)-2-(4,4″-Bis-trifluoromethyl-[1,1′;3′,1″]terphenyl-5′-yl)-4-methyl-pentanoic acid] | 40 | 40
2 | CC(C)CC(C(=O)O)c1cc(-c2ccc(OC(F)(F)F)cc2)cc(-c2ccc(C(F)(F)F)cc2)c1 (stereo not drawn) [Compound 20, 4-Methyl-2-(4-trifluoromethoxy-4″-trifluoromethyl-[1,1′;3′,1″]terphenyl-5′-yl)-pentanoic acid] | 20 | 50
3 | CC(C)CC(C(=O)O)c1cc(-c2ccc(C(F)(F)F)cc2)cc(-c2cc(F)c(F)c(F)c2)c1 (stereo not drawn) [Compound 14, 4-Methyl-2-(3,4,5-trifluoro-4″-trifluoromethyl-[1,1′;3′,1″]terphenyl-5′-yl)-pentanoic acid] | 20 | 58
4 | CC(C)C[C@H](C(=O)O)c1cc(-c2ccc(C(F)(F)F)cc2)cc(-c2ccc(Cl)c(F)c2)c1 [Compound 50, (S)-2-(4-Chloro-3-fluoro-4″-trifluoromethyl-[1,1′;3′,1″]terphenyl-5′-yl)-4-methyl-pentanoic acid] | 28 | 48
5 | CC(C)C[C@@H](C(=O)O)c1cc(-c2ccc(C(F)(F)F)cc2)cc(-c2cc(C(F)(F)F)cc(C(F)(F)F)c2)c1 [Compound 44, (R)-4-Methyl-2-(3,5,4″-tris-trifluoromethyl-[1,1′;3′,1″]terphenyl-5′-yl)-pentanoic acid] | −10 | 40
6 | CC(C)CC(C(=O)O)c1cc(-c2ccc(C(F)(F)F)cc2)cc(-c2ccc(C(F)(F)F)cc2)c1 (stereo not drawn) [Compound 5, 2-(4,4″-Bis-trifluoromethyl-[1,1′;3′,1″]terphenyl-5′-yl)-4-methyl-pentanoic acid] | 29 | 48
